PubChem BioAssay AID1963432 (Molecular Pharmacology Branch, DTP, NCI, 2024)
Where “and” joins values, the source holds several entries; their conditions need not be identical. Equal entries are not always repeated.

Test system: SYO-1 complex spheroid growth, percent test/control
Assay: Anticancer human tumor SYO-1 cell line growth inhibition [Asc];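 also: compound exposure lasted 7 days after spheroids grew 3 days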
Conditions: for viability, T/C: stronger effect = lower value; active = viability on the fitted dose curve at most 10% of control; inactive = the rest
Method: Multicellular complex tumor spheroid response to apoptosis pathway targeting inhibitors Alrizomadlin, Pelcitoclax, and Dasminapant in combination with a variety of drugs and investigational agents in selected tumor cell lines
The MDM2 inhibitor alrizomadlin, the Bcl-2/Bcl-xL inhibitor pelcitoclax, and the IAPs inhibitor dasminapant were evaluated both individually and in combination with standard of care and investigational anticancer small molecules within a complex spheroid model of solid tumors. . Complex spheroids include a stromal component modeled by human endothelial cells (HUVEC) and fibroblasts modeled by human mesenchymal stem cells (MSCs). The concentration ranges selected for each drug and investigational agent were based upon clinically achievable concentrations if the clinical Cmax of the agent was known.
Compounds. The drugs and investigational agents: alrizomadlin (APG-115; NSC831270), pelcitoclax (APG-1252; NSC835773), dasminapant (APG-1387;NSC834197), TAK-243 (NSC785004), copanlisib (NSC809693), olaparib (NSC753686), talazoparib (NSC767125), cobimetinib (NSC 768068), eltanexor (KPT-8602, NSC 794443), abemaciclib (NSC 768073), sotorasib (NSC818433), adagrasib (NSC 831453), MRTX-1133 (NSC 836407), Iadademestat (ORY1001, NSC 806812), and RMC-4630 (NSC839698), were obtained from the NCI Developmental Therapeutics Program Chemical Repository. The FDA-approved anticancer drug set is available from the Developmental Therapeutics Program at https://dtp.cancer.gov/organization/dscb/obtaining/available plates.htm. […] The stock solutions were prepared in dimethyl sulfoxide (DMSO, Sigma-Aldrich, St. Louis, MO, cat. D2650) at 800-fold the tested concentration and stored at -70 degrees C prior to their use. All drugs and investigational agents were tested over a range starting from a high concentration at or near the clinical Cmax and decreasing in half-log increments. If the clinical Cmax for an agent had not been determined, the highest concentration tested was 10 microM.
The patient-derived cancer (PDC) cell lines include five colon adenocarcinomas: 186277-243-T-J2-PDC, 616215-338-R-J1-PDC, 439559-082-T-J2-PDC, 463943-066-T-J2-PDC, and 519858-162-T-J1-PDC; three pancreatic carcinomas: 323965-272-R-J2-PDC, 521955-158-R6-J3-PDC, and 521955-158-R2-J5-PDC; two uterine sarcomas: 327498-152-R-J2-PDC and 993429-296-R-J1-PDC; two rhabdomyosarcomas: 755483-174-R-J1-PDC and 772245-204-R-J1-PDC; two soft tissue sarcomas: 126254-015-R-J1-PDC and 494315-158-R-J1-PDC; two malignant fibrous histiocytomas: 317291-083-R-J1-PDC and 596521-263-R-J1-PDC; two breast carcinomas: 171881-019-R-J1-PDC and 885512-296-R-J2-PDC; and one ovarian carcinoma: 6556581-035-R-J-PDC were obtained from the NCI PDMR, (https://pdmr.cancer.gov). The established cell lines HSSY-2 synovial sarcoma (RRID:CVCL 8719), SYO-1 synovial sarcoma (RRID:CVCL_7146), MPNST malignant peripheral neural sheath tumor were obtained from the Sloan Kettering Institute. The following established cell lines were purchased from the American Type Culture Collection (ATCC, Manassas, VA), Sor the received from the NCI repository:, PANC-1 pancreatic carcinoma (CRL-1469, RRID:CVCL_0480), OVCAR-5 ovarian carcinoma (RRID:CVCL_1628), OVCAR-8 ovarian carcinoma (RRID:CVCL_1629), , MCF-7 breast carcinoma (CRL-12584, RRID:CVCL_0031), MDA-MB-231 breast carcinoma (CRL-12532, RRID:CVCL_0062), NCI-H1876 small cell lung carcinoma (CRL-5902, RRID:CVCL_1503), NCI-H510A small cell lung carcinoma (HTB-184, RRID:CVCL_1565), NCI-H1417 (CRL-5869, RRID:CVCL_1469), and NCI-H196 small cell lung carcinoma (CRL-5823, RRID:CVCL_1509). Dr. Peter Houghton (Greehey Children's Cancer Research Institute, University of Texas Health Science Center, San Antonio, TX) provided Rh-18 rhabdomyosarcoma (RRID:CVCL_1659). Pooled donor human umbilical vein endothelial cells (HUVEC, Lonza, cat. CC-2519) and human mesenchymal stem cells (hMSC, Lonza, cat. PT-2501) were purchased from Lonza (Walkersville, MD).
Cell Culture. […]

NC1CCC(NC2CC2c2ccccc2)CC1 (centres undefined) + CCN1C(C(=O)NC23CCC(C(=O)O)(CC2)CC3)C(c2cccc(Cl)c2F)C2(C(=O)Nc3cc(Cl)ccc32)C12CCCCC2
< 0.316 nM: IC50 (curve of first compound, second compound 0.3 µM) | IC50 (curve of first compound, second compound 0.949 µM) | IC50 (curve of first compound, second compound 3 µM)
> 100 nM: IC50 (curve of first compound, second compound 0.00949 µM) | IC50 (curve of first compound, second compound 0.03 µM) | IC50 (curve of first compound, second compound 0.0949 µM)
active: viability, T/C (second compound 0.949 µM, first compound 0.000316 µM) 1.71% | viability, T/C (second compound 0.949 µM, first compound 0.001 µM) 2.22% | viability, T/C (second compound 0.949 µM, first compound 0.00316 µM) 1.78% | viability, T/C (second compound 0.949 µM, first compound 0.01 µM) 1.87% | viability, T/C (second compound 0.949 µM, first compound 0.0316 µM) 1.95% | viability, T/C (second compound 0.949 µM, first compound 0.1 µM) 1.33% | viability, T/C (second compound 3 µM, first compound 0.000316 µM) 1.21% | viability, T/C (second compound 3 µM, first compound 0.001 µM) 1.53% | viability, T/C (second compound 3 µM, first compound 0.00316 µM) 2.09% | viability, T/C (second compound 3 µM, first compound 0.01 µM) 1.25% | viability, T/C (second compound 3 µM, first compound 0.0316 µM) 1.49% | viability, T/C (second compound 3 µM, first compound 0.1 µM) 1.44%
inactive: viability, T/C (second compound 0.00949 µM, first compound 0.000316 µM) 102% | viability, T/C (second compound 0.00949 µM, first compound 0.001 µM) 96.7% | viability, T/C (second compound 0.00949 µM, first compound 0.00316 µM) 88% | viability, T/C (second compound 0.00949 µM, first compound 0.01 µM) 88% | viability, T/C (second compound 0.00949 µM, first compound 0.0316 µM) 94.2% | viability, T/C (second compound 0.00949 µM, first compound 0.1 µM) 91.1% | viability, T/C (second compound 0.03 µM, first compound 0.000316 µM) 98% | viability, T/C (second compound 0.03 µM, first compound 0.001 µM) 96.8% | viability, T/C (second compound 0.03 µM, first compound 0.00316 µM) 88.9% | viability, T/C (second compound 0.03 µM, first compound 0.01 µM) 84.6% | viability, T/C (second compound 0.03 µM, first compound 0.0316 µM) 85.9% | viability, T/C (second compound 0.03 µM, first compound 0.1 µM) 89.5% | viability, T/C (second compound 0.0949 µM, first compound 0.000316 µM) 84.9% | viability, T/C (second compound 0.0949 µM, first compound 0.001 µM) 74.4% | viability, T/C (second compound 0.0949 µM, first compound 0.00316 µM) 57.8% | viability, T/C (second compound 0.0949 µM, first compound 0.01 µM) 53.4% | viability, T/C (second compound 0.0949 µM, first compound 0.0316 µM) 55.2% | viability, T/C (second compound 0.0949 µM, first compound 0.1 µM) 51.7% | viability, T/C (second compound 0.3 µM, first compound 0.000316 µM) 18.6% | viability, T/C (second compound 0.3 µM, first compound 0.001 µM) 18.2% | viability, T/C (second compound 0.3 µM, first compound 0.00316 µM) 6.03% | viability, T/C (second compound 0.3 µM, first compound 0.01 µM) 8.44% | viability, T/C (second compound 0.3 µM, first compound 0.0316 µM) 13.7% | viability, T/C (second compound 0.3 µM, first compound 0.1 µM) 11.2%

COc1c(OCCCN2CCOCC2)ccc2c3n(c(=NC(=O)c4cnc(N)nc4)nc12)CCN3
741 nM and 900 nM and > 1000 nM: IC50 (curve of compound)
inactive: viability, T/C (compound 0.00316 µM) 111% and 102% and 109% | viability, T/C (compound 0.01 µM) 105% and 112% and 114% | viability, T/C (compound 0.0316 µM) 95.3% and 108% and 113% | viability, T/C (compound 0.1 µM) 95.4% and 101% and 107% | viability, T/C (compound 0.316 µM) 76.1% and 87.7% and 90.5% | viability, T/C (compound 1 µM) 40.2% and 46.1% and 63.6%

NC1CCC(NC2CC2c2ccccc2)CC1 (centres undefined) + CNC(C)C(=O)NC1CN(S(=O)(=O)c2cccc(S(=O)(=O)N3CCC4CCC(C(=O)NC(c5ccccc5)c5ccccc5)N4C(=O)C(NC(=O)C(C)NC)C3)c2)CCC2CCC(C(=O)NC(c3ccccc3)c3ccccc3)N2C1=O
inactive: viability, T/C (second compound 0.01 µM, first compound 0.000316 µM) 109% | viability, T/C (second compound 0.01 µM, first compound 0.001 µM) 104% | viability, T/C (second compound 0.01 µM, first compound 0.00316 µM) 97.4% | viability, T/C (second compound 0.01 µM, first compound 0.01 µM) 89.4% | viability, T/C (second compound 0.01 µM, first compound 0.0316 µM) 88.1% | viability, T/C (second compound 0.01 µM, first compound 0.1 µM) 86.2% | viability, T/C (second compound 0.0316 µM, first compound 0.000316 µM) 106% | viability, T/C (second compound 0.0316 µM, first compound 0.001 µM) 94% | viability, T/C (second compound 0.0316 µM, first compound 0.00316 µM) 89.7% | viability, T/C (second compound 0.0316 µM, first compound 0.01 µM) 85.6% | viability, T/C (second compound 0.0316 µM, first compound 0.0316 µM) 87.5% | viability, T/C (second compound 0.0316 µM, first compound 0.1 µM) 87.5% | viability, T/C (second compound 0.1 µM, first compound 0.000316 µM) 102% | viability, T/C (second compound 0.1 µM, first compound 0.001 µM) 92.5% | viability, T/C (second compound 0.1 µM, first compound 0.00316 µM) 86.7% | viability, T/C (second compound 0.1 µM, first compound 0.01 µM) 91.3% | viability, T/C (second compound 0.1 µM, first compound 0.0316 µM) 94.8% | viability, T/C (second compound 0.1 µM, first compound 0.1 µM) 91% | viability, T/C (second compound 0.316 µM, first compound 0.000316 µM) 99.8% | viability, T/C (second compound 0.316 µM, first compound 0.001 µM) 97.5% | viability, T/C (second compound 0.316 µM, first compound 0.00316 µM) 90.5% | viability, T/C (second compound 0.316 µM, first compound 0.01 µM) 90.3% | viability, T/C (second compound 0.316 µM, first compound 0.0316 µM) 86.6% | viability, T/C (second compound 0.316 µM, first compound 0.1 µM) 86.2% | viability, T/C (second compound 1 µM, first compound 0.000316 µM) 103% | viability, T/C (second compound 1 µM, first compound 0.001 µM) 99.1% | viability, T/C (second compound 1 µM, first compound 0.00316 µM) 91.2% | viability, T/C (second compound 1 µM, first compound 0.01 µM) 89.6% | viability, T/C (second compound 1 µM, first compound 0.0316 µM) 88.5% | viability, T/C (second compound 1 µM, first compound 0.1 µM) 86.4%
> 100 nM: IC50 (curve of first compound, second compound 0.01 µM) | IC50 (curve of first compound, second compound 0.0316 µM) | IC50 (curve of first compound, second compound 0.1 µM) | IC50 (curve of first compound, second compound 0.316 µM) | IC50 (curve of first compound, second compound 1 µM)
